Measurements as given in US20250144107A1, “USE OF A PIKFYVE INHIBITOR IN COMBINATION WITH IMMUNOTHERAPY” (The Regents of the University of Michigan, priority 2023, published 2025).

Key:
[1] = test system: KPC1361 (pancreas), B16-F10 (melanoma), 4T1 (breast), and MyC-CaP (prostate); experiment: Flow cytometry of MHC-I surface expression in murine cancer cells; assay type: cell-based; conditions: with or without IFN-γ; in a dose-dependent manner
Excerpt: (§1) FIG. 1E (Left) is line graphs of flow cytometry measuring MHC-I surface expression in KPC1361 cells, stimulated with or without IFN-γ, treated with DMSO, Apilimod, or ESK981; (Right) are bar graphs of quantification of flow cytometry measuring MHC-I surface expression in KPC1361 cells, stimulated with or without IFN-γ, treated with DMSO, Apilimod, or ESK981.
as §1, with “FIG. 2A” for “FIG. 1E”, “in MyC-CaP” for “in KPC1361”, “(Right) is a” for “(Right) are”, “bar graph” for “bar graphs”
Cancer cells or the OVA-expressing cancer cells treated in vitro were harvested from dishes, resuspended in buffer MACS (PBS containing 2% FBS and 2 mM EDTA), and stained with Zombie NIR™ Fixable Viability kit (BioLegend: #423106) and fluorophore-conjugated antibody against MHC-I or PE-conjugated antibody against SIINFEKL bound H-2Kb (BioLegend; catalog #141604), respectively. The cells were next washed twice with 1 ml MACS and fixed with 2% paraformaldehyde in PBS for 15 minutes at room temperature. The cells were then subjected to the flow cytometer (SONY SH800S) for measuring surface expression of MHC-I or SIINFEKL bound H-2Kb, respectively. […]

KPC1361 cells [2] = experiment: Immunocytochemistry of MHC-I localization and vacuoles; assay type: cell-based, mouse; conditions: IFN-γ stimulated KPC1361 cells, vs DMSO
Experimental: FIG. 1D is a series of 6 images showing MHC-I localization in IFN-γ stimulated KPC1361 cells treated with DMSO, Apilimod, or ESK981.
Cancer cells were seeded on cover glasses coated with 0.01% poly-L-Lysine (Sigma-Aldrich; catalog #: A-005-C). The cells were then treated with DMSO, apilimod, or ESK981, and stimulated with 10 ng/ml mouse recombinant IFN-γ (R&D Systems; catalog #: 485-MI) for 24 hours, followed by fixation with 2% paraformaldehyde in PBS and one washing with PBS. The cells were then permeabilized with 0.25% Triton X-100 in PBS, washed with PBS three times, and blocked with 5% goat serum in PBS for one hour at room temperature. After blocking, the cells were incubated with the MHC-I antibody (ER-HR52; Novus Biologicals; catalog #: NB100-64952) at 4° C. overnight, followed by PBS wash for three times and incubation of secondary antibody, Alexa Fluor 488 goat anti-rat IgG antibody (Jackson Immunoresearch; #112-545-167) at room temperature for one hour. After further washing with PBS three times, the cells were stained with DAPI and mounted on slides for imaging.

KPC1361 cells [3] = experiment: MHC-I surface expression in Pikfyve-wildtype, Pikfyve-null, Atg5-null or Atg7-null cells; assay type: cell-based, mouse; conditions: on-target test
Excerpt: as §1, with “1F” for “1E”, “cells” for “cells, stimulated”, “Pikfyve KO,” for “IFN-γ,”, “DMSO, Bafilomycin, chloroquine,” for “DMSO,”, “is” for “are”
FIG. 1G (Left) is a line graph of flow cytometry measuring MHC-I surface expression in KPC1361 cells with non-targeting single-guide RNA (control), or single-guide RNAs depleting Atg5 or Atg7, treated with DMSO or Apilimod; (Right) is a bar graph of quantification of flow cytometry measuring MHC-I surface expression in KPC1361 cells with non-targeting single-guide RNA (control), or single-guide RNAs depleting Atg5 or Atg7, treated with DMSO or Apilimod.
Cancer cells or the OVA-expressing cancer cells treated in vitro were harvested from dishes, resuspended in buffer MACS (PBS containing 2% FBS and 2 mM EDTA), and stained with Zombie NIR™ Fixable Viability kit (BioLegend: #423106) and fluorophore-conjugated antibody against MHC-I or PE-conjugated antibody against SIINFEKL bound H-2Kb (BioLegend; catalog #141604), respectively. The cells were next washed twice with 1 ml MACS and fixed with 2% paraformaldehyde in PBS for 15 minutes at room temperature. The cells were then subjected to the flow cytometer (SONY SH800S) for measuring surface expression of MHC-I or SIINFEKL bound H-2Kb, respectively. Antibodies used in this study include anti-H-2Kb (BD Biosciences; catalog #553570) and anti-H-2Db (28-14-8; Thermo Fisher Scientific; catalog #12-5999-82) for KPC1361 and B16-F10, anti-H-2Kd (BD Biosciences; catalog #562004) and anti-H-2Dd (BD Biosciences; catalog #553580) for 4T1, anti-H-2Kq (BD Biosciences; catalog #742296) and anti-H-2Dq/H-2Lq (BD Biosciences; catalog #744853) for MyC-CaP, and anti-HLA-A,B,C (clone w6/32; BioLegend; catalog #311406) for human cancer cells.

Structure (SMILES) | constitutive and induced surface expression of MHC-I [1] | cell surface expression of MHC-I (KPC1361 cells [2]) | upregulation of MHC-I surface expression, Pikfyve-wildtype vs Pikfyve-null cells (KPC1361 cells [3])
CC(C)Cn1c2ccc(Nc3ncccn3)cc2c2c3c(c4c(c21)CCc1nn(C)cc1-4)C(=O)NC3 [ESK981, 13-isobutyl-4-methyl-10-(pyrimidin-2-ylamino)-1,2,4,7,8,13-hexahydro-6H-indazolo[5,4-a]pyrrolo[3,4-c]carbazol-6-one] | upregulated | increased | only observed in the wildtype cells but not Pikfyve-null cells
Cc1cccc(/C=N/Nc2cc(N3CCOCC3)nc(OCCc3ccccn3)n2)c1 [apilimod, N-[(E)-(3-methylphenyl)methylideneamino]-6-morpholin-4-yl-2-(2-pyridin-2-ylethoxy)pyrimidin-4-amine] | upregulated | increased | only observed in the wildtype cells but not Pikfyve-null cells
